#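 Cultured in 96-well plates, cells were exposed to test compound for 48 hours across five concentrations. GI50 is the concentration that inhibits growth by half. TGI: total growth inhibition.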 Where a SMILES comes first, the peptide text is derived from it. [ ]: non-standard residue; d: D form. The star is where a group is joined. Decanoyl = CCCCCCCCCC(=O)*; Leu(ol) = CC(C)C[C@H](N)CO; Iva = CC[C@](C)(N)C(=O)O; Aib = CC(C)(N)C(=O)O
# Assays:
# Test in all cases: NCI-60 cell line screen, 48 h
# HOP-92 NSCLC = system: HOP-92 NSCLC
# OVCAR-5 ovarian = system: OVCAR-5 ovarian
# RPMI-8226 leukemia = system: RPMI-8226 leukemia
# SK-OV-3 ovarian = system: SK-OV-3 ovarian
# UO-31 renal = system: UO-31 renal
# NCI-H522 lung = system: NCI-H522 lung
# HCC-2998 colon = system: HCC-2998 colon
# LOX IMVI melanoma = system: LOX IMVI melanoma
# COLO 205 colon = system: COLO 205 colon
# RXF 393 renal = system: RXF 393 renal
# UACC-257 melanoma = system: UACC-257 melanoma
# M14 melanoma = system: M14 melanoma
# HS 578T breast = system: HS 578T breast
# BT-549 breast = system: BT-549 breast
# SNB-75 CNS = system: SNB-75 CNS
# SK-MEL-28 melanoma = system: SK-MEL-28 melanoma
# A549 NSCLC = system: A549 NSCLC
# DU-145 prostate = system: DU-145 prostate
# SK-MEL-2 melanoma = system: SK-MEL-2 melanoma
# TK-10 renal = system: TK-10 renal
# CAKI-1 renal = system: CAKI-1 renal
# OVCAR-3 ovarian = system: OVCAR-3 ovarian
# CCRF-CEM leukemia = system: CCRF-CEM leukemia
# 786-0 renal = system: 786-0 renal
# OVCAR-8 ovarian = system: OVCAR-8 ovarian
# SNB-19 CNS = system: SNB-19 CNS
# MDA-MB-435 = system: MDA-MB-435
# PC-3 prostate = system: PC-3 prostate
# IGROV1 ovarian = system: IGROV1 ovarian
# T-47D breast = system: T-47D breast
# NCI-H460 lung = system: NCI-H460 lung
# MCF7 breast = system: MCF7 breast
# HCT-15 colon = system: HCT-15 colon
# SW-620 colon = system: SW-620 colon
# K-562 leukemia = system: K-562 leukemia
# SF-539 CNS = system: SF-539 CNS
# NCI/ADR-RES ovarian = system: NCI/ADR-RES ovarian
# HCT-116 colon = system: HCT-116 colon
# HL-60(TB) leukemia = system: HL-60(TB) leukemia
# OVCAR-4 ovarian = system: OVCAR-4 ovarian
# HOP-62 NSCLC = system: HOP-62 NSCLC
# UACC-62 melanoma = system: UACC-62 melanoma
# SF-268 CNS = system: SF-268 CNS
# EKVX NSCLC = system: EKVX NSCLC
# MDA-MB-231 breast = system: MDA-MB-231 breast
# ACHN renal = system: ACHN renal
# SR leukemia = system: SR leukemia
# SF-295 CNS = system: SF-295 CNS
# MALME-3M melanoma = system: MALME-3M melanoma
# KM12 colon = system: KM12 colon
# NCI-H226 lung = system: NCI-H226 lung
# A498 renal = system: A498 renal
# SK-MEL-5 melanoma = system: SK-MEL-5 melanoma
# HT29 colon = system: HT29 colon
# MOLT-4 leukemia = system: MOLT-4 leukemia
# SN12C renal = system: SN12C renal
smiles,measurement,setting,value
CCCCCCCCCC(=O)N[C@@](C)(CC)C(=O)N1CCC[C@H]1C(=O)N[C@@H](CC(C)C)C(=O)N[C@@](C)(CC)C(=O)N[C@@H](CCC(N)=O)C(=O)N[C@H](CCC(N)=O)C(=O)NC(C)(C)C(=O)NC(C)(C)C(=O)N[C@@H](CCC(N)=O)C(=O)N[C@H](CC(C)C)C(=O)N[C@H](CO)CC(C)C (Decanoyl-[Iva]PL[Iva]Q[dQ][Aib][Aib]Q[dL][Leu(ol)]),GI50,HOP-92 NSCLC,1.34 µM
same,TGI,HOP-92 NSCLC,4.6 µM
same,GI50,OVCAR-5 ovarian,3.38 µM
same,TGI,OVCAR-5 ovarian,12.4 µM
same,GI50,RPMI-8226 leukemia,2.33 µM
same,TGI,RPMI-8226 leukemia,5.06 µM
same,GI50,SK-OV-3 ovarian,5.03 µM
same,TGI,SK-OV-3 ovarian,18.9 µM
same,GI50,UO-31 renal,3.58 µM
same,TGI,UO-31 renal,16.1 µM
same,GI50,NCI-H522 lung,2.06 µM
same,TGI,NCI-H522 lung,5.13 µM
same,GI50,HCC-2998 colon,2.15 µM
same,TGI,HCC-2998 colon,4.58 µM
same,GI50,LOX IMVI melanoma,1.97 µM
same,TGI,LOX IMVI melanoma,4.26 µM
same,GI50,COLO 205 colon,1.91 µM
same,TGI,COLO 205 colon,3.8 µM
same,GI50,RXF 393 renal,1.81 µM
same,TGI,RXF 393 renal,3.63 µM
same,GI50,UACC-257 melanoma,1.75 µM
same,TGI,UACC-257 melanoma,3.46 µM
same,GI50,M14 melanoma,1.93 µM
same,TGI,M14 melanoma,3.95 µM
same,GI50,HS 578T breast,2.1 µM
same,TGI,HS 578T breast,5.5 µM
same,GI50,BT-549 breast,2.08 µM
same,TGI,BT-549 breast,4.11 µM
same,GI50,SNB-75 CNS,1.6 µM
same,TGI,SNB-75 CNS,4.15 µM
same,GI50,SK-MEL-28 melanoma,1.77 µM
same,TGI,SK-MEL-28 melanoma,3.3 µM
same,GI50,A549 NSCLC,4.93 µM
same,TGI,A549 NSCLC,27 µM
same,GI50,DU-145 prostate,1.96 µM
same,TGI,DU-145 prostate,3.67 µM
same,GI50,SK-MEL-2 melanoma,2.76 µM
same,TGI,SK-MEL-2 melanoma,8.36 µM
same,GI50,TK-10 renal,4.09 µM
same,TGI,TK-10 renal,16.7 µM
same,GI50,CAKI-1 renal,6.6 µM
same,TGI,CAKI-1 renal,20.8 µM
same,GI50,OVCAR-3 ovarian,7.61 µM
same,TGI,OVCAR-3 ovarian,22.2 µM
same,GI50,CCRF-CEM leukemia,2.01 µM
same,TGI,CCRF-CEM leukemia,4.49 µM
same,GI50,786-0 renal,2.48 µM
same,TGI,786-0 renal,6.48 µM
same,GI50,OVCAR-8 ovarian,1.91 µM
same,TGI,OVCAR-8 ovarian,4.17 µM
same,GI50,SNB-19 CNS,2.08 µM
same,TGI,SNB-19 CNS,4.66 µM
same,GI50,MDA-MB-435,1.86 µM
same,TGI,MDA-MB-435,3.6 µM
same,GI50,PC-3 prostate,1.79 µM
same,TGI,PC-3 prostate,3.51 µM
same,GI50,IGROV1 ovarian,4.05 µM
same,TGI,IGROV1 ovarian,14.8 µM
same,GI50,T-47D breast,3.56 µM
same,TGI,T-47D breast,17.8 µM
same,GI50,NCI-H460 lung,3.53 µM
same,TGI,NCI-H460 lung,11.8 µM
same,GI50,MCF7 breast,2.04 µM
same,TGI,MCF7 breast,4.38 µM
same,GI50,HCT-15 colon,7.72 µM
same,TGI,HCT-15 colon,22.5 µM
same,GI50,SW-620 colon,4.05 µM
same,TGI,SW-620 colon,15.2 µM
same,GI50,K-562 leukemia,2.09 µM
same,TGI,K-562 leukemia,4.37 µM
same,GI50,SF-539 CNS,1.98 µM
same,TGI,SF-539 CNS,4.21 µM
same,GI50,NCI/ADR-RES ovarian,5.59 µM
same,TGI,NCI/ADR-RES ovarian,19.6 µM
same,GI50,HCT-116 colon,3.3 µM
same,TGI,HCT-116 colon,12.1 µM
same,GI50,HL-60(TB) leukemia,2.23 µM
same,TGI,HL-60(TB) leukemia,6.26 µM
same,GI50,OVCAR-4 ovarian,12.7 µM
same,TGI,OVCAR-4 ovarian,28.5 µM
same,GI50,HOP-62 NSCLC,2.25 µM
same,TGI,HOP-62 NSCLC,5.04 µM
same,GI50,UACC-62 melanoma,1.99 µM
same,TGI,UACC-62 melanoma,4.91 µM
same,GI50,SF-268 CNS,2.5 µM
same,TGI,SF-268 CNS,6.52 µM
same,GI50,EKVX NSCLC,2.2 µM
same,TGI,EKVX NSCLC,5.47 µM
same,GI50,MDA-MB-231 breast,2.04 µM
same,TGI,MDA-MB-231 breast,4.71 µM
same,GI50,ACHN renal,8.34 µM
same,TGI,ACHN renal,20.8 µM
same,GI50,SR leukemia,1.94 µM
same,TGI,SR leukemia,4.32 µM
same,GI50,SF-295 CNS,1.76 µM
same,TGI,SF-295 CNS,3.42 µM
same,GI50,MALME-3M melanoma,2.12 µM
same,TGI,MALME-3M melanoma,4.95 µM
same,GI50,KM12 colon,2.03 µM
same,TGI,KM12 colon,4.37 µM
same,GI50,NCI-H226 lung,2.21 µM
same,TGI,NCI-H226 lung,5.2 µM
same,GI50,A498 renal,2.75 µM
same,TGI,A498 renal,7.36 µM
same,GI50,SK-MEL-5 melanoma,1.88 µM
same,TGI,SK-MEL-5 melanoma,3.56 µM
same,GI50,HT29 colon,3.48 µM
same,TGI,HT29 colon,14.8 µM
same,GI50,MOLT-4 leukemia,2.09 µM
same,TGI,MOLT-4 leukemia,4.43 µM
same,GI50,SN12C renal,2.29 µM
same,TGI,SN12C renal,6.15 µM
